In ChEMBL document CHEMBL1143762, “CP5484, a novel quaternary carbapenem with potent anti-MRSA activity and reduced toxicity” (Bioorg Med Chem, 2007):
In brackets after ≈: the same amount, converted by molar mass.

Key:
Staphylococcus aureus [1] = assay: Antibacterial activity against carbapenem-resistant Staphylococcus aureus M126 HR; type: functional
Mus musculus = assay: Acute toxicity in iv dosed ICR mouse assessed as mortality after 24 hrs; type: organism-based; details: in vivo
Staphylococcus aureus [2] = assay: Antibacterial activity against Staphylococcus aureus 209P JC1; type: functional
Staphylococcus aureus [3] = assay: Antibacterial activity against methicillin-resistant Staphylococcus aureus M126; type: functional
Serum [4] = assay: Protein binding in mouse serum by equilibrium dialysis method; type: ADME, cell-free
Serum [5] = assay: Protein binding in human serum by equilibrium dialysis method; type: ADME, cell-free
[6] = Volume of distribution at steady state in mouse at 20 mg/kg, iv administered with 10 mg/kg cilastatin; type: ADME, organism-based; details: in vivo, read-out: Vss
[7] = AUC (0-infinity) in mouse at 20 mg/kg, iv administered with 10 mg/kg cilastatin; type: ADME, organism-based; set-up: dose 20 mg/kg, route intravenous, time infinity; details: plasma
Staphylococcus aureus [8] = assay: Protective effect against methicillin-resistant Staphylococcus aureus MF126 systemic infection in ICR mouse dosed sc twice a day; type: functional
Escherichia coli = assay: Antibacterial activity against Escherichia coli NIHJ JC2; type: functional
Moraxella catarrhalis = assay: Antibacterial activity against Moraxella catarrhalis W-0500; type: functional
Staphylococcus aureus [9] = assay: Antibacterial activity against penicillin-resistant Staphylococcus aureus PRC9; type: functional
Pseudomonas aeruginosa = assay: Antibacterial activity against Pseudomonas aeruginosa PAO1; type: functional
Staphylococcus aureus [10] = assay: Antibacterial activity against methicillin-resistant Staphylococcus aureus MF126; type: functional
[11] = Urinary excretion of compound in mouse at 20 mg/kg, iv administered with 10 mg/kg cilastatin; type: ADME, organism-based; details: urine, read-out: Activity
Haemophilus influenzae = assay: Antibacterial activity against beta lactamase positive amoxicillin/clavulanic acid-resistant Haemophilus influenzae PRC44; type: functional
Klebsiella pneumoniae = assay: Antibacterial activity against Klebsiella pneumoniae PCI602; type: functional
[12] = Half life in mouse at 20 mg/kg, iv administered with 10 mg/kg cilastatin; type: ADME, organism-based; details: in vivo
[13] = Total clearance in mouse at 20 mg/kg, iv administered with 10 mg/kg cilastatin; type: ADME, organism-based; details: in vivo
Staphylococcus aureus [14] = assay: Antibacterial activity against methicillin-resistant Staphylococcus aureus; type: functional

Structure (SMILES)	MIC (Staphylococcus aureus [1]) [µg/mL]	MLD (Mus musculus) [mg/kg]	MIC (Staphylococcus aureus [2]) [µg/mL]	MIC (Staphylococcus aureus [3]) [µg/mL]	also measured
CSc1c2sc(C3=C(C(=O)[O-])N4C(=O)[C@H]([C@@H](C)O)[C@H]4[C@H]3C)cn2c[n+]1CCN	3.13 (≈ 7.41 µM)	500	< 0.006	0.78 (≈ 1.85 µM)	
CSc1c2sc(C3=C(C(=O)[O-])N4C(=O)[C@H]([C@@H](C)O)[C@H]4[C@H]3C)cn2c[n+]1Cc1cccc(CSC(=N)N)c1	0.78 (≈ 1.4 µM)	250	< 0.006	0.39 (≈ 0.699 µM)	
CSc1c2sc(C3=C(C(=O)[O-])N4C(=O)[C@H]([C@@H](C)O)[C@H]4[C@H]3C)cn2c[n+]1[C@@H]1CN[C@H](C(=O)N(C)C)C1	6.25 (≈ 12 µM)		0.025 (≈ 0.0481 µM)	3.13 (≈ 6.02 µM)	
CO[C@H](CN)C[n+]1cn2cc(C3=C(C(=O)[O-])N4C(=O)[C@H]([C@@H](C)O)[C@H]4[C@H]3C)sc2c1SC	3.13 (≈ 6.71 µM)	> 500	< 0.006	0.78 (≈ 1.67 µM)	
CSc1c2sc(C3=C(C(=O)[O-])N4C(=O)[C@H]([C@@H](C)O)[C@H]4[C@H]3C)cn2c[n+]1C[C@@H](CN)OCF	3.13 (≈ 6.46 µM)	500	< 0.006	0.78 (≈ 1.61 µM)	
CSc1c2sc(C3=C(C(=O)[O-])N4C(=O)[C@H]([C@@H](C)O)[C@H]4[C@H]3C)cn2c[n+]1CCSCCN	1.56 (≈ 3.23 µM)		< 0.006	0.39 (≈ 0.808 µM)	
CSc1c2sc(C3=C(C(=O)[O-])N4C(=O)[C@H]([C@@H](C)O)[C@H]4[C@H]3C)cn2c[n+]1CCS(=O)(=O)CCN	3.13 (≈ 6.08 µM)	> 500	< 0.006	0.78 (≈ 1.52 µM)	
CSc1c2sc(C3=C(C(=O)[O-])N4C(=O)[C@H]([C@@H](C)O)[C@H]4[C@H]3C)cn2c[n+]1CCCCCCN	1.56 (≈ 3.26 µM)	250	< 0.006	0.78 (≈ 1.63 µM)	
CSc1c2sc(C3=C(C(=O)[O-])N4C(=O)[C@H]([C@@H](C)O)[C@H]4[C@H]3C)cn2c[n+]1C1CCNCC1	3.13 (≈ 6.77 µM)		0.013 (≈ 0.0281 µM)	1.56 (≈ 3.37 µM)	
CSc1c2sc(C3=C(C(=O)[O-])N4C(=O)[C@H]([C@@H](C)O)[C@H]4[C@H]3C)cn2c[n+]1C[C@@H]1CCCN1	3.13 (≈ 6.77 µM)		< 0.006	0.78 (≈ 1.69 µM)	
CSc1c2sc(C3=C(C(=O)[O-])N4C(=O)[C@H]([C@@H](C)O)[C@H]4[C@H]3C)cn2c[n+]1CCCNC=N	3.13 (≈ 6.75 µM)		< 0.006	0.78 (≈ 1.68 µM)	
CSc1c2sc(C3=C(C(=O)[O-])N4C(=O)[C@H]([C@@H](C)O)[C@H]4[C@H]3C)cn2c[n+]1CCCCN	1.56 (≈ 3.46 µM)		< 0.006	0.78 (≈ 1.73 µM)	
CSc1c2sc(C3=C(C(=O)[O-])N4C(=O)[C@H]([C@@H](C)O)[C@H]4[C@H]3C)cn2c[n+]1CCCN	1.56 (≈ 3.57 µM)	250	< 0.006	0.78 (≈ 1.79 µM)	
CSc1c2sc(C3=C(C(=O)[O-])N4C(=O)[C@H]([C@@H](C)O)[C@H]4[C@H]3C)cn2c[n+]1CC(N)=O	3.13 (≈ 7.17 µM)		< 0.006	1.56 (≈ 3.57 µM)	
CSc1c2sc(C3=C(C(=O)[O-])N4C(=O)[C@H]([C@@H](C)O)[C@H]4[C@H]3C)cn2c[n+]1[C@@H]1CN[C@H](C(=O)O)C1	6.25 (≈ 12.7 µM)		0.025 (≈ 0.0508 µM)	3.13 (≈ 6.35 µM)	
CSc1c2sc(C3=C(C(=O)[O-])N4C(=O)[C@H]([C@@H](C)O)[C@H]4[C@H]3C)cn2c[n+]1[C@H]1CCNC1	1.56 (≈ 3.48 µM)	500	< 0.006	0.78 (≈ 1.74 µM)	
CSc1c2sc(C3=C(C(=O)[O-])N4C(=O)[C@H]([C@@H](C)O)[C@H]4[C@H]3C)cn2c[n+]1CCCNC(C)=N	3.13 (≈ 6.55 µM)		< 0.006	0.78 (≈ 1.63 µM)	
CSc1c2sc(C3=C(C(=O)[O-])N4C(=O)[C@H]([C@@H](C)O)[C@H]4[C@H]3C)cn2c[n+]1C[C@H](O)CN	1.56 (≈ 3.45 µM)	> 500	< 0.006	0.78 (≈ 1.72 µM)	Activity (Serum [4]): 16%; Activity (Serum [5]): 12.2%; Vd [6]: 0.34 L/kg; AUC(0-inf) [7]: 12600 ng·h/mL; ED50 (Staphylococcus aureus [8]): 0.039 mg; MIC (Escherichia coli): 0.05 µg/mL (≈ 0.11 µM); MIC (Moraxella catarrhalis): 0.05 µg/mL (≈ 0.11 µM); MIC (Staphylococcus aureus [9]): 0.05 µg/mL (≈ 0.11 µM); MIC (Pseudomonas aeruginosa): 6.25 µg/mL (≈ 13.8 µM); MIC (Staphylococcus aureus [10]): 1.56 µg/mL (≈ 3.45 µM); dose excreted [11]: 41.9%; MIC (Haemophilus influenzae): 0.78 µg/mL; MIC (Klebsiella pneumoniae): 0.1 µg/mL (≈ 0.221 µM); half-life [12]: 13.4 min; clearance [13]: 26.8 mL/min/kg; MIC50 (Staphylococcus aureus [14]): 0.78 µg/mL (≈ 1.72 µM); MIC90 (Staphylococcus aureus [14]): 1.56 µg/mL (≈ 3.45 µM)
CSc1c2sc(C3=C(C(=O)[O-])N4C(=O)[C@H]([C@@H](C)O)[C@H]4[C@H]3C)cn2c[n+]1[C@H]1CCN(C(C)=N)C1	3.13 (≈ 6.39 µM)		< 0.006	1.56 (≈ 3.19 µM)	
CSc1c2sc(C3=C(C(=O)[O-])N4C(=O)[C@H]([C@@H](C)O)[C@H]4[C@H]3C)cn2c[n+]1CCCSC(=N)N	1.56 (≈ 3.15 µM)	250	< 0.006	0.39 (≈ 0.787 µM)	
CSc1c2sc(C3=C(C(=O)[O-])N4C(=O)[C@H]([C@@H](C)O)[C@H]4[C@H]3C)cn2c[n+]1[C@@H]1CN[C@H](CO)C1	3.13 (≈ 6.54 µM)		< 0.006	0.78 (≈ 1.63 µM)	
COC(=O)[C@@H]1C[C@H]([n+]2cn3cc(C4=C(C(=O)[O-])N5C(=O)[C@H]([C@@H](C)O)[C@H]5[C@H]4C)sc3c2SC)CN1	6.25 (≈ 12.3 µM)		0.013 (≈ 0.0257 µM)	1.56 (≈ 3.08 µM)	
CSc1c2sc(C3=C(C(=O)[O-])N4C(=O)[C@H]([C@@H](C)O)[C@H]4[C@H]3C)cn2c[n+]1C[C@H](C)CN	1.56 (≈ 3.46 µM)	500	< 0.006	0.78 (≈ 1.73 µM)	
C[C@@H](O)[C@H]1C(=O)N2C(C(=O)O)=C(SCCNC=N)C[C@H]12 [IMIPENEM ANHYDROUS]	100 (≈ 334 µM)		0.013 (≈ 0.0434 µM)	25 (≈ 83.5 µM)	MIC (Escherichia coli): 0.1 µg/mL (≈ 0.334 µM); MIC (Moraxella catarrhalis): 0.05 µg/mL (≈ 0.167 µM); MIC (Staphylococcus aureus [9]): 0.39 µg/mL (≈ 1.3 µM); MIC (Pseudomonas aeruginosa): 1.56 µg/mL (≈ 5.21 µM); MIC (Haemophilus influenzae): 3.13 µg/mL; MIC (Klebsiella pneumoniae): 0.39 µg/mL (≈ 1.3 µM)
CN[C@H](CC(C)C)C(=O)N[C@H]1C(=O)N[C@@H](CC(N)=O)C(=O)N[C@H]2C(=O)N[C@H]3C(=O)N[C@H](C(=O)N[C@H](C(=O)O)c4cc(O)cc(O)c4-c4cc3ccc4O)[C@H](O)c3ccc(c(Cl)c3)Oc3cc2cc(c3O[C@@H]2O[C@H](CO)[C@@H](O)[C@H](O)[C@H]2O[C@H]2C[C@](C)(N)[C@H](O)[C@H](C)O2)Oc2ccc(cc2Cl)[C@H]1O [VANCOMYCIN]	1.56 (≈ 1.08 µM)		0.78 (≈ 0.538 µM)	1.56 (≈ 1.08 µM)	ED50 (Staphylococcus aureus [8]): 0.18 mg; MIC (Staphylococcus aureus [10]): 0.78 µg/mL (≈ 0.538 µM); MIC50 (Staphylococcus aureus [14]): 1.56 µg/mL (≈ 1.08 µM); MIC90 (Staphylococcus aureus [14]): 1.56 µg/mL (≈ 1.08 µM)
